Where two headings read alike, the source gives them in different places. Values belong to the compound of their own block, whether it stands above or below them.
What was measured:
[1] = tested on: G76 cells; assay: Apoptosis induction, Caspase-Glo 3/7; assay type: cell-based, human; conditions: for EC50: Homo sapiens; for induction of apoptosis (caspase 3/7), in words: TMZ up to 5 μM
Procedure: (§1) Apoptosis induction assay using Caspase-Glo® 3/7 system: G75 and G76 cells were employed to assess the effects of LTZ, TMZ, and LTZ+TMZ combination treatment on induction of apoptosis through caspase 3/7 activation. Cells were seeded at a density of 1.5×10^4 cells per well in a translucent walled, clear bottom, 96-well plate. Promega Caspase-Glo® 3/7 Assay system was used to assess the caspase 3/7 levels in cells treated with LTZ, TMZ, LTZ (0.04 μM)+TMZ (0-5 μM), and vehicle (0.1% DMSO). Cells were treated for 24 h after plating. Caspase-Glo® 3/7 3D substrate and Caspase-Glo® 3/7 3D buffer was mixed to form a 10 mL reaction mixture and 100 μL of the mixture was added to each well. The reaction was allowed to proceed at room temperature in the dark for 30 minutes. The luminescence readings were carried out 24 h after the treatment using Synergy™ HTX Multi-Mode Microplate Reader. The experiment was repeated in presence of estradiol to assess the effect of estradiol on caspase induction in G75 and G76 cells.

[2] = tested on: G75 cells; assay: Apoptosis induction, Caspase-Glo 3/7; assay type: cell-based, human; conditions: for EC50: Homo sapiens; for induction of apoptosis (caspase 3/7), in words: TMZ up to 5 μM
Procedure: as §1

[3] = cited from earlier work
[4] = tested on: patient-derived GBM lines (G76, BT-142, G75, G43); assay: Cell viability assay (CyQuant LDH), all four lines; assay type: cell-based, human; conditions: for IC50: Homo sapiens, BT142, 72 h
Procedure: (§2) Cell viability Assay: The cytotoxic effects of TMZ, LTZ, and various combinations of the two agents were evaluated using the CyQuant™ Lactate Dehydrogenase (LDH) assay (ThermoFisher Scientific). This assay measures the release of LDH, a cytosolic enzyme, into the extracellular medium resulting from damage to the plasma membrane. Cells (1.4×10^4) were plated in 96 well plates in serum-free medium. Twenty-four hours after seeding, cells were treated with TMZ (0-100 μM), LTZ (0-2 μM), or TMZ (0-10 μM)+LTZ (0.04 μM). Dimethyl sulfoxide (0.1%) was used as a vehicle control. The effect of adding estradiol (250 pg/ml) on cell viability was also determined.

[5] = tested on: G75 cells; assay: Cell viability assay (CyQuant LDH); assay type: cell-based; conditions: Homo sapiens, 72 h, single agent, read-out: IC50 (cytotoxicity)
Procedure: as §2

[6] = tested on: BT-142 cells; assay: Cell viability assay (CyQuant LDH); assay type: cell-based; conditions: Homo sapiens, BT142, 72 h, single agent, read-out: IC50 (cytotoxicity)
Procedure: as §2

[7] = tested on: G76 cells; assay: Cell viability assay (CyQuant LDH); assay type: cell-based, human; conditions: 72 h, single agent, read-out: IC50 (cytotoxicity)
Procedure: as §2

[8] = tested on: G43 cells; assay: Cell viability assay (CyQuant LDH); assay type: cell-based, human; conditions: 72 h, single agent, read-out: IC50 (cytotoxicity)
Procedure: as §2

[9] = tested on: G76 cells; assay: Assessment of gamma-H2A.X (flow cytometry); assay type: cell-based, human; conditions: for γ-H2AX induction (DNA damage): single agent (TMZ up to 1 μM; LTZ 500 nM and 1 μM); for LTZ-mediated induction of γ-H2AX in the presence of estradiol: estradiol (250 pg/ml)
Procedure: (§3) Assessment of gamma-H2A.X: Induction of γH2A.X in G75 and G76 cells (lx 106) treated with LTZ, TMZ, and LTZ+TMZ (0-10 μM) in the presence and the absence of estradiol (250 pg/ml) was assessed using flow cytometric analysis. Based on initial assessment of the time course of γH2A.X induction, a 5 h treatment was used to capture maximal effect. Cell pellets were collected by centrifugation of the cells at 2,000×g for 5 minutes at room temperature. Cells were then washed with ice cold PBS, followed by addition of a 1:1 mixture of methanol and NP40 (300 μL) for fixation and permeabilization of the cells. Following centrifugation at 4° C. at 290×g, 100 μL of 1:250 dilution of the primary unconjugated antibody for gamma-H2A.X at room temperature were added to the cells. The cells were incubated with the primary antibody for 20 min and washed with 600 μL of 1:1 methanol and NP40 mixture. Secondary Per-CP conjugated antibody was added to the cells at a dilution of 1:1000 and incubated at room temperature in the dark for 20 minutes. Cells were washed again with 600 μL of 1:1 methanol and NP40 mixture, re-suspended in 1×PBS, and subjected to flow cytometric analysis with the excitation wavelength of 488 nm (Beckman CytoFlex flow cytometer). […] The scatter plots were analyzed using CytExpert version 2.3 to assess the percentage of cells positive for γH2A.X versus the isotype control.

[10] = tested on: G75 cells; assay: Assessment of gamma-H2A.X (flow cytometry); assay type: cell-based, human; conditions: for γ-H2AX induction (DNA damage): single agent (TMZ up to 1 μM; LTZ 500 nM and 1 μM); for LTZ-mediated induction of γ-H2AX in the presence of estradiol: estradiol (250 pg/ml)
Procedure: as §3

[11] = tested on: G43 cells; assay: Neurosphere growth inhibition; assay type: cell-based, human; conditions: for neurosphere diameter: 72 h, LTZ 40 nM, TMZ 1 μM, alone or combined, in mm
Procedure: (§4) Neurosphere Growth Inhibition: Since G43 and BT-142 cells form neurospheres in culture medium, the effects of LTZ and TMZ on the growth of the neurosphere. Cells (1×10^4) were plated and 24 hours later treated with LTZ (0-2 μM), TMZ (0-100 μM) or were also determined. Cells were treated with LTZ (0.04 μM)+TMZ (0-10 μM) for 72 h cells, with DMSO (0.1%) serving as vehicle control. Neurosphere dimensions were measured using Leica Stereomicroscope in bright field setting. The effect of addition of estradiol (250 pg/ml) on the neurosphere growth was also determined.

[12] = tested on: BT-142 cells; assay: Neurosphere growth inhibition; assay type: cell-based, human; conditions: for median neurosphere diameter: 72 h, LTZ 40 nM, TMZ 1 μM, alone or combined
Procedure: as §4

[13] = single agent, Emax model, read-out: EC50 for caspase 3/7 induction
[14] = with letrozole 40 nM, read-out: EC50 for caspase 3/7 induction by temozolomide in the presence of letrozole (40 nM)
[15] = LTZ 40 nM alone or combined with TMZ

EC50 [1, 13]: 6.4 µM | EC50 [1, 14]: 1.8 µM | EC50 [2, 13]: 93.8 µM | EC50 [2, 14]: 5.1 µM | IC50 ([4]; with LTZ 40 nM, read-out: TMZ IC50 in the presence of LTZ (40 nM), range for all four cell lines): 0.16 to 0.69 µM
Compound: Cn1nnc2c(C(N)=O)ncn2c1=O [TMZ, 4-methyl-5-oxo-2,3,4,6,8-pentazabicyclo[4.3.0]nona-2,7,9-triene-9-carboxamide]
induction of apoptosis (caspase 3/7), in words ([1]; single agent): induced apoptosis in G76 cells | TMZ-mediated apoptosis (caspase 3/7) with LTZ (40 nM) ([1]; with LTZ 40 nM): striking increase in TMZ-mediated apoptosis | induction of apoptosis (caspase 3/7), in words ([2]; single agent): not in G75 cells | TMZ-mediated apoptosis (caspase 3/7) with LTZ (40 nM) ([2]; with LTZ 40 nM): striking increase in TMZ-mediated apoptosis | peak plasma levels ([3]; doses of 100-200 mg/m^2, listed as temozolomide): 25 to 50 µM | partitioning of the drug from plasma to the brain interstitial fluid ([3]; intracerebral microdialysis, peritumoral): 13-17% | brain interstitial fluid (peritumoral) concentrations ([3]; intracerebral microdialysis, approximately): 3 to 8 µM | IC50 [5]: 107 µM | IC50 [6]: 15.3 µM | IC50 [7]: 1.31 µM | IC50 ([7]; Homo sapiens): 1.3 µM | IC50 [8]: 165 µM | IC50 ([8]; Homo sapiens): 165 µM | γ-H2AX induction (DNA damage), TMZ combined with LTZ ([9]; 5 h, LTZ 40 nM + TMZ 0.1 μM): significantly enhanced DNA damage by temozolomide | γ-H2AX induction (DNA damage) ([9]; 5 h): noticeable induction of γ-H2AX | γ-H2AX induction (DNA damage), TMZ combined with LTZ ([10]; 5 h, LTZ 40 nM + TMZ 0.1 μM): significantly enhanced DNA damage by temozolomide | γ-H2AX induction (DNA damage) ([10]; 5 h): not in G75 cells | neurosphere diameter [11]: 1.6±0.085 | median neurosphere diameter [12]: 0.9±0.023 mm

EC50 [1, 13]: 1.8 ± 0.312 µM | EC50 [2, 13]: 5.07 ± 1.1 µM
Compound: N#Cc1ccc(C(c2ccc(C#N)cc2)n2cncn2)cc1 [LTZ, 4,4′-((1H-1,2,4-triazol-1-yl)methylene)dibenzonitrile]
letrozole-mediated induction of apoptosis in the presence of estradiol ([1]; estradiol present): prevented letrozole-mediated DNA damage and induction of apoptosis | induction of apoptosis (caspase 3/7), in words ([1]; single agent): very effective in inducing apoptosis in a concentration-dependent manner | letrozole-mediated induction of apoptosis in the presence of estradiol ([2]; estradiol present): prevented letrozole-mediated DNA damage and induction of apoptosis | induction of apoptosis (caspase 3/7), in words ([2]; single agent): very effective in inducing apoptosis in a concentration-dependent manner | IC50 ([4]; single agent, read-out: IC50 (cytotoxicity), range over the cell lines): 0.08 to 0.67 µM | letrozole effects in cell viability assay with estradiol added ([4]; estradiol (250 pg/ml) added to the culture media): completely abrogated the letrozole effects | γ-H2AX induction (DNA damage) ([9]; 5 h): considerably increased γ-H2AX levels | γ-H2AX induction (DNA damage) ([9]; 5 h, listed as Letrozole): caused DNA damage | LTZ-mediated induction of γ-H2AX in the presence of estradiol [9]: abrogated in the presence of estradiol | LTZ-mediated induction of γ-H2AX in the presence of estradiol ([9]; listed as letrozole): prevented letrozole-mediated DNA damage | γ-H2AX induction (DNA damage) ([10]; 5 h): considerably increased γ-H2AX levels | γ-H2AX induction (DNA damage) ([10]; 5 h, listed as Letrozole): caused DNA damage | LTZ-mediated induction of γ-H2AX in the presence of estradiol [10]: abrogated in the presence of estradiol | LTZ-mediated induction of γ-H2AX in the presence of estradiol ([10]; listed as letrozole): prevented letrozole-mediated DNA damage | neurosphere diameter [11]: 1.85±0.13 | neurosphere growth inhibition (in words) [11, 15]: minimally impacted neurosphere growth | letrozole effects in neurosphere growth inhibition assay with estradiol added ([11]; estradiol (250 pg/ml) added): completely abrogated the letrozole effects | median neurosphere diameter [12]: 1.1±0.077 mm | neurosphere growth inhibition (in words) [12, 15]: minimally impacted neurosphere growth | letrozole effects in neurosphere growth inhibition assay with estradiol added ([12]; estradiol (250 pg/ml) added): completely abrogated the letrozole effects

Source: patent publication US20250205225A1, “METHODS OF POTENTIATING TEMOZOLOMIDE ACTIVITY AGAINST GLIOBLASTOMA CELLS” (University of Cincinnati, priority 2022, published 2025)
